According to publication PMC11133798, “Vosoritide treatment for children with hypochondroplasia: a phase 2 trial” (eClinicalMedicine, 2024):
Where “and” joins values, the source holds several entries; their conditions need not be identical. Equal entries are not always repeated.

Columns and labels:
[1] = tested on: children with hypochondroplasia; experiment: Phase 2 open-label trial: height efficacy outcomes (annualized growth velocity, height SDS); type: in vivo, human; conditions: for Annualized growth velocity, treatment period / Annualized growth velocity SDS, treatment period: SD
Experimental: The study consists of a 6-month observation period to establish a baseline annualized growth velocity followed by a 12-month intervention period during which vosoritide is administered daily via subcutaneous injection at a dose of 15 μg/kg/day, the same dose as used in the Phase 3 trial of children with achondroplasia.[7] […] Details of the protocol can be found in the Supplementary Materials.
The study has 3 prespecified co-primary outcomes: 1. To evaluate the safety and tolerability of daily subcutaneous injections of vosoritide administered for 12 months in patients with selected genetic causes of short stature, 2. To evaluate the change from baseline in age-sex standardized annualized growth velocity after 12 months of daily SC injections of vosoritide in patients with selected genetic causes of short stature, and 3. To evaluate the change from baseline in age-sex standardized height SDS after 12 months of daily SC injections of vosoritide in patients with selected genetic causes of short stature. Annualized growth velocity was standardized using data from the First Zurich Longitudinal Study of Growth and Development[9] as it includes growth velocity data starting at age 2.5 years. Height SDS was calculated using the United States CDC growth charts.[8] Hypochondroplasia specific height SDS was calculated using recently published hypochondroplasia growth curves.[10] To measure these outcomes, the following 3 co-primary endpoints were specified: 1. The incidence of adverse events per participant, 2. The change from baseline in age-sex standardized annualized growth velocity after 12 months of treatment, and 3. The change from baseline in age-sex standardized height SDS after 12 months of treatment. Height was measured five times at each study visit on a wall-mounted calibrated Harpenden stadiometer. The average of all five values was used. Safety assessments included routine laboratory evaluations at each visit, baseline and Month 12 echocardiograms, electrocardiograms at each visit, vital signs measurements, and spine X-rays at Day 1 and Month 12.
No formal power calculations were done for this proof of principle study. Sample size was determined based on logistical feasibility. Medication adherence was calculated using the number of returned empty vials divided by the number of days of prescribed therapy. Demographics and clinical characteristics were summarized with mean and standard deviation (SD), median and interquartile (IQR) for numerical variables, frequency and proportion for categorical variables. Primary and secondary clinical outcomes were summarized with mean (SD) for the 6-month observation period and the 12-month treatment period. Paired t-tests were carried out to compare the difference between the treatment and observation periods. The corresponding p-value and 95% confidence interval (CI) were reported. Box and whisker plots were used for both primary endpoints (annualized growth velocity and height SDS) and exploratory endpoints (CXM and cGMP) to visualize the trends for the change from baseline to each of the follow-up visits. Safety data (AEs) were summarized as count and percentage of patients as well as the number of total occurrences per each listed AE for the observation period and the treatment period, respectively. As exploratory analyses, the primary endpoints were stratified based on age, baseline growth velocity and baseline height SDS. The summaries of mean (SD) for each visit, mean differences between treatment and observation periods, and the corresponding p-value and 95% CI were all reported. Parent reported quality of life using the QoLISSY scale was also reported with a similar tabular format. Data were analyzed using SAS for Windows version 9.4 (SAS Institute Inc., Cary, NC). A two-sided test with a significance level of 0.05 was used for all hypothesis tests.

[2] = tested on: children with achondroplasia; conditions: cited from earlier work
From the text: Vosoritide is a c-type natriuretic peptide (CNP) analog that upon binding its receptor on chondrocytes inhibits the mitogen-activated protein kinase (MAPK) pathway. This pathway is downstream of FGFR3 and is activated in hypochondroplasia and achondroplasia. […] Based on this study and additional trials, vosoritide has now been approved in numerous countries for use in children ... || The standing height SDS increased by 0.37 SD during the year of treatment or 0.41 SD using hypochondroplasia specific growth charts. This is slightly greater than the 0.27 SD increase seen in the Phase 3 study of children with achondroplasia. In prior studies with children with achondroplasia, the increase in growth velocity and gains in height SDS have persisted over multiple years.[16]^,[17] Participants in the current study with positive responses to therapy have been enrolled in an ongoing extension study to assess if this will be true in hypochondroplasia as well. It is reassuring that th ...

PGQEHPNARKYKGANKKGLSKGCFGLKLDRIGSMSGLGC (disulfide) [vosoritide, recombinant 39-amino-acid C-type natriuretic peptide analog expressed in E. coli, cyclic by an intramolecular disulfide bond]
Annualized growth velocity, treatment period ([1]; 15 μg/kg/day SC daily, 12-month treatment period, n=24, mean (SD), 6-month observation period 5.12 (1.36)): 6.93 (0.93) cm/year | Standing height SDS, change during treatment period ([1]; CDC growth charts, Day 1 to Month 12, n=24, mean (95% CI), change in observation period 0.01 (−0.06, 0.08)): 0.37 (0.27, 0.47) SD | Hypochondroplasia specific standing height SDS, change during treatment period ([1]; Day 1 to Month 12, n=24, mean (95% CI), change in observation period 0.03 (−0.12, 0.19)): 0.41 (0.32, 0.50) SD | Annualized growth velocity SDS, treatment period ([1]; age-sex standardized (First Zurich Longitudinal Study), 15 μg/kg/day SC, 12-month treatment, n=24, mean (SD), observation period −1.14 (1.29)): 1.12 (1.05) cm/year | Annualized growth velocity, Month 6 versus Month 12 visit ([1]; n=24, on treatment): no significant difference | Increase in annualized growth velocity, single participant with treatment interruption ([1]; person, vosoritide suspended for 40 days for immune thrombocytopenia): 2.4 cm/year | Annualized growth velocity, treatment period ([1]; subgroup Age 3 to <5 Year (N=10), 12-month treatment, 15 μg/kg/day SC, mean (SD), observation 5.97 (1.38)): 7.32 (0.79) cm/yr | Annualized growth velocity SDS, treatment period ([1]; subgroup Age 3 to <5 Year (N=10), mean (SD), observation -0.82 (1.12)): 1.23 (1.01) cm/yr | Annualized growth velocity, treatment period ([1]; subgroup Age 5 to <9 Year (N=11), mean (SD), observation 4.27 (0.75)): 6.91 (0.80) cm/yr | Annualized growth velocity SDS, treatment period ([1]; subgroup Age 5 to <9 Year (N=11), mean (SD), observation -1.93 (0.81)): 1.29 (1.13) cm/yr | Annualized growth velocity SDS, treatment period ([1]; subgroup Age 9 to <11 Year (N=3), mean (SD), observation 0.71 (1.12)): 0.16 (0.38) cm/yr | Annualized growth velocity, treatment period ([1]; subgroup Age 9 to <11 Year (N=3), mean (SD), observation 5.37 (1.53)): 5.71 (0.98) cm/yr | Annualized growth velocity, treatment period ([1]; subgroup GV baseline <=5.0 (N=14), mean (SD), observation 4.17 (0.59)): 6.91 (1.01) cm/yr | Annualized growth velocity, treatment period ([1]; subgroup GV baseline > 5.0 (N=10), mean (SD), observation 6.45 (0.94)): 6.96 (0.85) cm/yr | Annualized growth velocity, treatment period ([1]; subgroup Height SDS baseline -3.5 to <=-3.0 (N=9), mean (SD), observation 5.17 (0.89)): 6.88 (0.84) cm/yr | Annualized growth velocity, treatment period ([1]; subgroup Height SDS baseline <=-3.5 (N=7), mean (SD), observation 4.67 (1.11)): 6.64 (1.14) cm/yr | Annualized growth velocity, treatment period ([1]; subgroup Height SDS baseline >-3.0 (N=8), mean (SD), observation 5.46 (1.95)): 7.24 (0.86) cm/yr | Change in annualized growth velocity (SDS), single participants without the Asn540Lys variant in FGFR3 ([1]; two participants (Gly342Cys, Ser351Phe per Table 1), one value each, cohort mean 2.26 SD): 2.5 SD and 2.4 SD | Adjusted mean difference in annualized growth velocity ([2]; Phase 3, placebo-controlled, children with achondroplasia, 15 μg/kg/day): 1.57 cm/year | Increase in standing height SDS ([2]; Phase 3 study of children with achondroplasia): 0.27 SD
